Laboratory results from the supplement of paper PMC10307832.

Legend:
Assay in all cases: relative viability (nuclei count vs DMSO), 5 days (fraction); higher = more cells survive
[1] = compound: N#CC[C@H](C1CCCC1)n1cc(-c2ncnc3[nH]ccc23)cn1 [Ruxolitinib] + C[C@]1(O)C[C@@H](c2nc(-c3ccc4ccc(-c5ccccc5)nc4c3)c3c(N)nccn32)C1 [Linsitinib] (partner 1 µM)
Method in brief: (§1)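 After 5 days of treatment, lung cancer cells in 1536-well plates were fixed and stained in a single step (final 0.05% Triton X-100, 1% formaldehyde, 1 ug/ml Hoechst) and their nuclei counted on 4× images. Treatment had been applied by pin tool the day after seeding as one drug alone or as a fixed anchor-drug dose with five library-drug doses (not always all listed) in √10 steps. Relative viability is the nuclei count of treated wells divided by that of vehicle wells, and values are medians of duplicate plates.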

[2] = compound: N#CC[C@H](C1CCCC1)n1cc(-c2ncnc3[nH]ccc23)cn1 [Ruxolitinib] + CC1(C)CCC(c2ccc(Cl)cc2)=C(CN2CCN(c3ccc(C(=O)NS(=O)(=O)c4ccc(N[C@H](CCN5CCOCC5)CSc5ccccc5)c(S(=O)(=O)C(F)(F)F)c4)cc3)CC2)C1 [Navitoclax] (partner 0.5 µM)
Method in brief: as §1

[3] = compound: CS(=O)(=O)c1ccc(-c2cnc(N)c(C(=O)Nc3ccccc3)n2)cc1 [VE-821] + CC(=O)c1c(C)c2cnc(Nc3ccc(N4CCNCC4)cn3)nc2n(C2CCCC2)c1=O [Palbociclib] (partner 0.5 µM)
Method in brief: as §1

[4] = compound: CS(=O)(=O)c1ccc(-c2cnc(N)c(C(=O)Nc3ccccc3)n2)cc1 [VE-821] + CS(=O)(=O)N1CCN(Cc2cc3nc(-c4cccc5[nH]ncc45)nc(N4CCOCC4)c3s2)CC1 [Pictilisib] (partner 1 µM)
Method in brief: as §1

Cell Line | relative viability ([1]; first compound 0.08 µM) | relative viability ([1]; first compound 0.253 µM) | relative viability ([1]; first compound 0.8 µM) | relative viability ([1]; first compound 2.53 µM) | relative viability ([1]; first compound 8 µM) | relative viability ([2]; first compound 0.08 µM) | relative viability ([2]; first compound 0.253 µM) | relative viability ([2]; first compound 0.8 µM) | relative viability ([2]; first compound 2.53 µM) | relative viability ([2]; first compound 8 µM) | relative viability ([3]; first compound 0.08 µM) | relative viability ([3]; first compound 0.253 µM) | relative viability ([3]; first compound 0.8 µM) | relative viability ([3]; first compound 2.53 µM) | relative viability ([3]; first compound 8 µM) | relative viability ([4]; first compound 0.08 µM) | relative viability ([4]; first compound 0.253 µM) | relative viability ([4]; first compound 0.8 µM) | relative viability ([4]; first compound 2.53 µM) | relative viability ([4]; first compound 8 µM)
NCI-H1915 | 1.12 | 1.05 | 1.05 | 1.04 | 1.03 | 0.79 | 0.838 | 0.791 | 0.731 | 0.691 | 0.558 | 0.532 | 0.54 | 0.547 | 0.452 | 1.06 | 0.785 | 0.982 | 1.07 | 0.652
SK-MES-1 | 1.15 | 1.02 | 1.04 | 0.866 | 0.622 | 1.3 | 1.12 | 1.26 | 1.18 | 0.9 | 0.339 | 0.345 | 0.323 | 0.296 | 0.287 | 0.4 | 0.389 | 0.423 | 0.337 | 0.372
NCI-H522 | – | – | – | – | – | – | – | – | – | – | 1.06 | 1.15 | 0.754 | 0.932 | 0.999 | – | – | – | – | –
NCI-H1299 | 0.981 | 0.974 | 0.975 | 0.917 | 0.871 | 1.03 | 1.05 | 1.02 | 1.02 | 0.85 | – | – | – | – | – | 0.769 | 0.606 | 0.689 | 0.771 | 0.357
NCI-H1651 | 0.949 | 0.864 | 1 | 0.929 | 0.964 | 0.978 | 1.08 | 1.11 | 1.36 | 0.996 | 0.523 | 0.547 | 0.502 | 0.565 | 0.519 | 0.648 | 0.584 | 0.602 | 0.557 | 0.585
NCI-H661 | 0.598 | 0.639 | 0.708 | 0.498 | 0.591 | – | – | – | – | – | 0.409 | 0.453 | 0.415 | 0.4 | 0.413 | 0.379 | 0.393 | 0.406 | 0.39 | 0.336
NCI-H1944 | 1.23 | 1.12 | 1.28 | 1.15 | 1.21 | 0.998 | 0.959 | 1.03 | 0.887 | 0.955 | 0.408 | 0.325 | 0.256 | 0.354 | 0.236 | 0.364 | 0.325 | 0.348 | 0.339 | 0.294
NCI-H358 | 0.716 | 0.629 | 0.803 | 0.514 | 0.544 | – | – | – | – | – | 0.13 | 0.14 | 0.134 | 0.135 | 0.133 | 0.383 | 0.273 | 0.408 | 0.359 | 0.38
NCI-H596 | 1.24 | 1.18 | 1.09 | 1.11 | 1.11 | 0.903 | 1.05 | 1 | 1.01 | 1.14 | – | – | – | – | – | 0.416 | 0.4 | 0.431 | 0.431 | 0.385
EBC-1 | 0.831 | 1.1 | 1.06 | 0.783 | 0.823 | 0.372 | 0.435 | 0.402 | 0.347 | 0.237 | – | – | – | – | – | 0.295 | 0.353 | 0.382 | 0.433 | 0.312
ChaGo-K-1 | – | – | – | – | – | – | 0.861 | 0.796 | 0.986 | 0.734 | 0.95 | 0.956 | 0.909 | 0.905 | 0.803 | 0.705 | 0.712 | 0.927 | 0.797 | 0.339
NCI-H2342 | – | – | – | – | – | – | – | – | – | – | 0.503 | 0.557 | 0.528 | 0.521 | 0.494 | – | – | – | – | –
Calu-6 | 0.94 | 0.923 | 1.01 | – | 0.882 | 0.836 | 0.858 | 0.862 | 0.767 | 0.294 | – | – | – | – | – | 1.1 | 0.973 | 0.918 | 0.778 | 0.523
NCI-H1703 | 1.07 | 0.624 | 1.25 | 0.451 | 0.547 | 1.18 | 1.23 | 1.23 | 0.562 | 0.611 | – | – | – | – | – | 0.241 | 0.233 | 0.25 | 0.227 | 0.192
NCI-H1563 | 1.18 | 1.21 | 1.25 | 1.16 | 1.09 | – | – | – | – | – | – | – | – | – | – | 0.581 | 0.613 | 0.648 | 0.663 | 0.731
LCLC-103H | 1.2 | 1.24 | 1.25 | 1.04 | 1.03 | – | – | – | – | – | 0.552 | 0.513 | 0.524 | 0.523 | 0.448 | 0.572 | 0.51 | 0.663 | 0.75 | 0.494
IA-LM | 0.652 | 0.662 | 0.719 | 0.518 | 0.469 | 0.821 | 0.85 | 0.913 | 0.743 | 0.395 | – | – | – | – | – | 0.412 | 0.341 | 0.443 | 0.749 | 0.551
NCI-H650 | – | 0.795 | 1.11 | 0.677 | 0.55 | – | – | – | – | – | 0.365 | 0.341 | 0.331 | 0.438 | 0.352 | 0.882 | 0.927 | 0.731 | 0.985 | 0.88
SW 900 | – | – | – | – | – | – | – | – | – | – | 0.549 | 0.52 | 0.46 | 0.542 | 0.36 | – | – | – | – | –
ABC-1 | 0.983 | 0.705 | 0.865 | 0.97 | 0.871 | – | – | – | – | – | 0.651 | 0.788 | 0.601 | 0.695 | 0.633 | 0.902 | 0.684 | 0.721 | 0.751 | 0.466
NCI-H1648 | – | – | – | – | – | – | – | – | – | – | 0.269 | – | 0.252 | 0.265 | 0.349 | – | – | – | – | –
NCI-H2170 | – | – | – | – | – | 0.6 | 0.575 | 0.618 | 0.593 | 0.48 | 0.432 | 0.414 | 0.381 | 0.45 | 0.32 | 0.319 | 0.289 | 0.332 | 0.4 | 0.293
A549 | 0.594 | 0.576 | 0.896 | 0.558 | 0.675 | 1.2 | 1.16 | 1.21 | 0.961 | 0.508 | – | – | – | – | – | 0.616 | 0.481 | 0.531 | 0.468 | 0.229
